Test results from PMC10698694 (ACS chemical biology, 2023).

Key:
Experiment in all cases: AlphaScreen competition
Assay type in all cases: binding
[1] = target: CECR2 bromodomain (CECR2 BD) (Homo sapiens, UniProt Q9BXF3)
[2] = target: T1, BRD9 bromodomain (BRD9 BD) (Homo sapiens, UniProt Q9H8M2)
T1 sequence (Q9H8M2 134-239 limits assumed): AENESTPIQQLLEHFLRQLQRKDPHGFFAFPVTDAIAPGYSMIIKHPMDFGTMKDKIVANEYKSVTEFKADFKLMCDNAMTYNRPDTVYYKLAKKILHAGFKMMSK

[3] = target: BPTF bromodomain (BPTF BD) (Homo sapiens, UniProt Q12830)

IC50 [1] | IC50 [2] | IC50 [3] | SMILES
24 nM | 844 nM | 146 ± 12 nM | CS(=O)(=O)c1nc(NCCCn2cccn2)cc(-c2ccc(OCCCN3CCN(CCCCCCOc4cccc5c4C(=O)N(C4CCC(=O)NC4=O)C5=O)CC3)cc2)n1 (stereo not shown) [compound 8, 4-((6-(4-(3-(4-(6-((3-(1H-Pyrazol-1-yl)propyl)amino)-2-(methylsulfonyl)pyrimidin-4-yl)phenoxy)propyl)piperazin-1-yl)hexyl)oxy)-2-(2,6-dioxopiperidin-3-yl)isoindoline-1,3-dione]
33 nM | 996 nM | 267 ± 8 nM | CS(=O)(=O)c1nc(NCCCn2cccn2)cc(-c2ccc(OCCCN3CCN(CCOCCOCCOc4cccc5c4C(=O)N(C4CCC(=O)NC4=O)C5=O)CC3)cc2)n1 (stereo not shown) [compound 9, 4-(2-(2-(2-(4-(3-(4-(6-((3-(1H-Pyrazol-1-yl)propyl)amino)-2-(methylsulfonyl)pyrimidin-4-yl)phenoxy)propyl)piperazin-1-yl)ethoxy)ethoxy)ethoxy)-2-(2,6-dioxopiperidin-3-yl)-isoindoline-1,3-dione]
– | – | 360 nM | CN(CCCOc1ccc(-c2cc(NCCCn3cccn3)nc(S(C)(=O)=O)n2)cc1)CCOCCOCCOc1cccc2c1C(=O)N(C1CCC(=O)NC1=O)C2=O (stereo not shown) [compound 10, 4-(2-(2-(2-((3-(4-(6-((3-(1H-Pyrazol-1-yl)propyl)amino)-2-(methylsulfonyl)pyrimidin-4-yl)phenoxy)propyl)(methyl)-amino)ethoxy)ethoxy)ethoxy)-2-(2,6-dioxopiperidin-3-yl)-isoindoline-1,3-dione]
